Results taken from ChEMBL document CHEMBL1131882, “Unsymmetrical cyclic ureas as HIV-1 protease inhibitors: novel biaryl indazoles as P2/P2' substituents” (Bioorg Med Chem Lett, 1999).

Columns and labels:
[1] = target: Human immunodeficiency virus type 1 protease (Human immunodeficiency virus 1) (UniProt Q72874); test: Inhibitory activity against HIV -1 Protease in whole cell assay
[2] = target: Human immunodeficiency virus type 1 protease (Human immunodeficiency virus 1, UniProt Q72874); test: Binding affinity for HIV -1 Protease
[3] = test system: Human immunodeficiency virus 1; test: Inhibitory activity against Ritonavir resistant virus mutant strain; format: functional

| Structure (SMILES) | IC90 [1] [nM] | Ki [2] [nM] | IC90 [3] [nM] |
| --- | --- | --- | --- |
| Nc1cccc(CN2C(=O)N(Cc3ccc4[nH]nc(-c5cccc(C(F)(F)F)c5)c4c3)[C@H](Cc3ccccc3)[C@H](O)[C@@H](O)[C@H]2Cc2ccccc2)c1 | 39 | 0.61 |  |
| Nc1cccc(CN2C(=O)N(Cc3ccc4[nH]nc(-c5cccc(N)c5)c4c3)[C@H](Cc3ccccc3)[C@H](O)[C@@H](O)[C@H]2Cc2ccccc2)c1 | 30 | 0.09 | 1300 |
| Nc1cccc(CN2C(=O)N(Cc3ccc4[nH]nc(-c5ccc(C(F)(F)F)cc5)c4c3)[C@H](Cc3ccccc3)[C@H](O)[C@@H](O)[C@H]2Cc2ccccc2)c1 | 255 | 0.25 |  |
| Nc1cccc(CN2C(=O)N(Cc3ccc4[nH]ncc4c3)[C@H](Cc3ccccc3)[C@H](O)[C@@H](O)[C@H]2Cc2ccccc2)c1 | 11 |  | 825 |
| COc1cccc(-c2n[nH]c3ccc(CN4C(=O)N(Cc5cccc(N)c5)[C@H](Cc5ccccc5)[C@H](O)[C@@H](O)[C@H]4Cc4ccccc4)cc23)c1 |  | 0.24 |  |
| Nc1cccc(CN2C(=O)N(Cc3ccc4[nH]nc(-c5cccs5)c4c3)[C@H](Cc3ccccc3)[C@H](O)[C@@H](O)[C@H]2Cc2ccccc2)c1 | 31 | 0.18 | > 5000 |
| Nc1cccc(CN2C(=O)N(Cc3ccc4[nH]nc(-c5ccc(F)cc5)c4c3)[C@H](Cc3ccccc3)[C@H](O)[C@@H](O)[C@H]2Cc2ccccc2)c1 | 39 | 0.3 | > 5000 |
| CC(C)c1nc(CN(C)C(=O)N[C@H](C(=O)N[C@@H](Cc2ccccc2)C[C@H](O)[C@H](Cc2ccccc2)NC(=O)OCc2cncs2)C(C)C)cs1 [RITONAVIR] |  |  | 4500 |
| COc1cccc(-c2[nH]nc3ccc(CN4C(=O)N(Cc5cccc(N)c5)[C@H](Cc5ccccc5)[C@H](O)[C@@H](O)[C@H]4Cc4ccccc4)cc23)c1 | 33 |  | 3140 |
| Nc1cccc(CN2C(=O)N(Cc3ccc4[nH]nc(-c5ccsc5)c4c3)[C@H](Cc3ccccc3)[C@H](O)[C@@H](O)[C@H]2Cc2ccccc2)c1 | 32 | 0.13 | > 5000 |
| Nc1cccc(CN2C(=O)N(Cc3ccc4[nH]nc(-c5cc[nH]n5)c4c3)[C@H](Cc3ccccc3)[C@H](O)[C@@H](O)[C@H]2Cc2ccccc2)c1 | 108 | 0.058 | 525 |
| COc1ccc(-c2[nH]nc3ccc(CN4C(=O)N(Cc5cccc(N)c5)[C@H](Cc5ccccc5)[C@H](O)[C@@H](O)[C@H]4Cc4ccccc4)cc23)cc1 | 14 | 0.26 | 4190 |
